Test results as given in patent publication US10271552B2, “Heterocyclic compounds as pesticides” (Bayer CropScience Aktiengesellschaft, priority 2015, dated 2019).

Tests used:
Type in all cases: in vivo
Meloidogyne incognita = Meloidogyne incognita test; settings: 20 ppm; eggs and larvae, salad seeds in sand; after 14 days
Description: Meloidogyne incognita—Test
Solvent: 125.0 parts by weight of acetone
To produce a suitable preparation of active compound, 1 part by weight of active compound is mixed with the stated amount of solvent, and the concentrate is diluted with water to the desired concentration.
Vessels are filled with sand, a solution of the active ingredient, a suspension containing eggs and larvae of the southern root-knot nematode (Meloidogyne incognita) and salad seeds. The salad seeds germinate and the seedlings grow. Galls develop in the roots.
After 14 days the nematicidal activity is determined on the basis of the percentage of gall formation. 100% means no galls were found and 0% means the number of galls found on the roots of the treated plants was equal to that in untreated control plants.

Boophilus microplus = Boophilus microplus injection test; settings: 20 μg/animal injected; adult engorged female ticks; after 7 days
Description: Boophilus microplus—Injection Test
Solvent: dimethyl sulfoxide
To produce a suitable preparation of active compound, 10 mg of active compound are dissolved in 0.5 ml solvent, and the concentrate is diluted with solvent to the desired concentration.
Five adult engorged female ticks (Boophilus microplus) are injected with 1 μl compound solution into the abdomen. The ticks are transferred into replica plates and incubated in a climate chamber.
After 7 days egg deposition of fertile eggs is monitored. Eggs where fertility is not visible are stored in a climate chamber till hatching after about 42 days. An efficacy of 100% means all eggs are infertile; 0% means all eggs are fertile.

Ctenocephalides felis = Ctenocephalides felis in-vitro contact test, adult cat flea; settings: 5 μg/cm^2 (=500 g/ha), after 48 hours
Description: Ctenocephalides felis—In-Vitro Contact Tests Adult Cat Flea
9 mg compound is solved in 1 ml acetone and diluted with acetone to the desired concentration. 250 μl of the test solution is filled in 25 ml glass test tubes and homogeneously distributed on the inner walls by rotation and tilting on a shaking device (2 h at 30 rpm). With a compound concentration of 900 ppm, an inner surface of 44.7 cm^2 and a homogeneous distribution, a dose of 5 μg/cm^2 is achieved.
After the solvent has evaporated, each test tube is filled with 5-10 adult cat fleas (Ctenocephalides felis), closed with a perforated lid and incubated in a lying position at room temperature and relative humidity. After 48 hours efficacy is determined. The fleas are patted on the ground of the tubes and are incubated on a heating plate at 45-50° C. for at most 5 minutes. Immotile or uncoordinated moving fleas, which are not able to escape the heat by climbing upwards, are marked as dead or moribund.
An efficacy of 100% means all fleas are dead or moribund; 0% means no fleas are dead or moribund.

Diabrotica balteata = Diabrotica balteata spray test; settings: 160 μg/well; germinated wheat seeds, larvae; after 7 days
Description: Diabrotica Balteata—Spray Test
(§1) Solvent: 78.0 parts by weight of acetone • • 1.5 parts by weight of dimethylformamide
(§2) Emulsifier: alkylarylpolyglycol ether
(§3) To produce a suitable preparation of active compound, 1 part by weight of active compound is mixed with the stated amount of solvent, and the concentrate is diluted with water, containing an emulsifier concentration of 1000 ppm, to the desired concentration. Further test concentrations are prepared by dilution with emulsifier containing water.
Soaked wheat seeds (Triticum aestivum) are placed in a multiple well plate filled with agar and some water and are incubated for 1 day to germinate (5 seeds per well). The germinated wheat seeds are sprayed with a test solution containing the desired concentration of the active ingredient. Afterwards each unit is infected with 10-20 larvae of the banded cucumber beetle (Diabrotica balteata).
After 7 days efficacy in % is determined. 100% means all the seedlings have grown up like in the untreated, uninfected control; 0% means none of the seedlings have grown.

Phaedon cochleariae = Phaedon cochleariae spray test; settings: foliar, 168 h, Chinese cabbage leaf disks, larvae, after 7 days
Description: Phaedon cochleariae—Spray Test
as §1, §2
(§4) To produce a suitable preparation of active compound, 1 part by weight of active compound is mixed with the stated amount of solvents and is diluted with water, containing an emulsifier concentration of 1000 ppm, to the desired concentration. Further test concentrations are prepared by dilution with emulsifier containing water.
Chinese cabbage (Brassica pekinensis) leaf disks are sprayed with a preparation of the active ingredient of the desired concentration. Once dry, the leaf disks are infested with mustard beetle larvae (Phaedon cochleariae).
After 7 days mortality in % is determined. 100% means all beetle larvae have been killed and 0% means none of the beetle larvae have been killed.

Nezara viridula [1] = experiment: Nezara viridula spray test (solvent 78.0 acetone / 1.5 dimethylformamide); settings: 96 h, barley plants, larvae, after 4 days
Description: (§5) Nezara viridula—Spray Test
as §1, §2, §3
(§6) Barley plants (Hordeum vulgare) infested with larvae of the southern green stink bug (Nezara viridula) are sprayed with a test solution containing the desired concentration of the active ingredient.
(§7) After 4 days mortality in % is determined. 100% means all the stink bugs have been killed; 0% means none of the stink bugs have been killed.

Nezara viridula [2] = experiment: Nezara viridula spray test (solvent 52.5 acetone / 7 dimethylformamide); settings: 96 h, barley plants, larvae, after 4 days
Description: as §5
Solvent: 52.5 parts by weight of acetone • 7 parts by weight of dimethylformamide
Emulsifier: alkylaryl polyglycolether
To produce a suitable preparation of active compound, 1 part by weight of active compound is mixed with the stated amount of solvent, and the concentrate is diluted with water, containing an emulsifier concentration of 1000 ppm, to the desired concentration. Ammonium salt and/or penetration enhancer in a dosage of 1000 ppm are added to the desired concentration if necessary.
as §6, §7

Tetranychus urticae = Tetranychus urticae spray test OP-resistant; settings: foliar, 144 h, French bean leaf disks, all instars, after 6 days
Description: Tetranychus urticae—Spray Test OP-Resistant
Solvent: 78.0 parts by weight acetone • 1.5 parts by weight dimethylformamide
as §2, §4
French bean (Phaseolus vulgaris) leaf disks infected with all instars of the two spotted spidermite (Tetranychus urticae), are sprayed with a preparation of the active ingredient of the desired concentration.
After 6 days mortality in % is determined. 100% means all spider mites have been killed and 0% means none of the spider mites have been killed.

## O=C(Nc1nc(-c2c(F)cccc2F)ns1)c1ccccc1Cl [Compound I-1-3]
Meloidogyne incognita
  nematicidal activity (gall formation): 90%
Boophilus microplus
  efficacy (infertile eggs): 100%

## O=C(Nc1nc(-c2c(F)cccc2F)ns1)c1ccccc1C(F)(F)F [Compound I-1-4]
Meloidogyne incognita
  nematicidal activity (gall formation): 90%
Boophilus microplus
  efficacy (infertile eggs): 100%
Ctenocephalides felis
  efficacy (fleas dead or moribund): 100%

## O=C(Nc1nc(-c2c(F)cccc2F)ns1)c1nccnc1C(F)(F)F [Compound I-1-7]
Boophilus microplus
  efficacy (infertile eggs): 100%
Diabrotica balteata
  efficacy (seedling growth): 100%
Ctenocephalides felis
  efficacy (fleas dead or moribund): 100%

## O=C(Nc1nc(-c2c(F)cccc2F)ns1)c1ccccc1I [Compound I-1-8]
Boophilus microplus
  efficacy (infertile eggs): 100%

## O=C(Nc1nc(-c2c(F)cccc2F)ns1)c1ccccc1C(F)F [Compound I-1-9]
Meloidogyne incognita
  nematicidal activity (gall formation): 70%
Boophilus microplus
  efficacy (infertile eggs): 100%

## O=C(Nc1nc(-c2c(F)cccc2F)ns1)c1ncccc1C(F)(F)F [Compound I-1-13]
Meloidogyne incognita
  nematicidal activity (gall formation): 90%

## O=C(Nc1nc(-c2c(F)cccc2F)ns1)c1cccnc1C(F)F [Compound I-1-14]
Meloidogyne incognita
  nematicidal activity (gall formation): 100%
Boophilus microplus
  efficacy (infertile eggs): 100%

## O=C(Nc1nc(-c2ccccc2C(F)(F)F)ns1)c1ccccc1Br [Compound I-1-16]
Meloidogyne incognita
  nematicidal activity (gall formation): 90%

## O=C(Nc1nc(-c2ccccc2C(F)(F)F)ns1)c1ncccc1C(F)(F)F [Compound I-1-19]
Meloidogyne incognita
  nematicidal activity (gall formation): 90%
Diabrotica balteata
  efficacy (seedling growth): 100%

## O=C(Nc1nc(-c2ccccc2Cl)ns1)c1ccccc1Br [Compound I-1-21, 2-Bromo-N-[3-(2-chlorophenyl)-1,2,4-thiadiazol-5-yl]benzamide]
Phaedon cochleariae
  mortality at 500 g/ha: ≥ 80%
Nezara viridula [1]
  mortality at 500 g/ha: ≥ 90%

## O=C(Nc1nc(-c2ccccc2Cl)ns1)c1ccccc1Cl [Compound I-1-22]
Boophilus microplus
  efficacy (infertile eggs): 100%

## O=C(Nc1nc(-c2c(F)cccc2F)ns1)c1cccnc1Cl [Compound I-1-29, 2-Chloro-N-[3-(2,6-difluorophenyl)-1,2,4-thiadiazol-5-yl]nicotinamide]
Meloidogyne incognita
  nematicidal activity (gall formation): 100%
Diabrotica balteata
  efficacy (seedling growth): 80%
Nezara viridula [2]
  mortality at 500 g/ha: ≥ 90%
Nezara viridula [1]
  mortality at 500 g/ha: ≥ 90%

## CCN(C(=O)c1cccnc1C(F)(F)F)c1nc(-c2c(F)cccc2F)ns1 [Compound I-1-34, N-[3-(2,6-Difluorophenyl)-1,2,4-thiadiazol-5-yl]-N-ethyl-2-(trifluoromethyl)nicotinamide]
Tetranychus urticae
  mortality at 500 g/ha: ≥ 70%

## CCc1ncccc1C(=O)Nc1nc(-c2c(F)cccc2F)ns1 [Compound I-1-36, N-[3-(2,6-Difluorophenyl)-1,2,4-thiadiazol-5-yl]-2-ethylnicotinamide]
Meloidogyne incognita
  nematicidal activity (gall formation): 100%
Phaedon cochleariae
  mortality at 500 g/ha: ≥ 80%

## O=C(Nc1nc(-c2c(F)cccc2F)ns1)c1cccnc1CC(F)(F)F [Compound I-1-38]
Diabrotica balteata
  efficacy (seedling growth): 80%

## O=C(Nc1nc(-c2c(F)cccc2F)ns1)C1=C(C(F)F)OCCS1 [Compound I-1-39]
Meloidogyne incognita
  nematicidal activity (gall formation): 70%

## O=C(Nc1nc(-c2ccccc2Cl)ns1)c1cccnc1C(F)(F)F [Compound I-1-43, N-[3-(2-chlorophenyl)-1,2,4-thiadiazol-5-yl]-2-(trifluoromethyl)nicotinamide]
Nezara viridula [2]
  mortality at 500 g/ha: ≥ 90%
Phaedon cochleariae
  mortality at 500 g/ha: ≥ 80%
Nezara viridula [1]
  mortality at 500 g/ha: ≥ 90%
Tetranychus urticae
  mortality at 500 g/ha: ≥ 70%

## O=C(Nc1nc(-c2ccccc2Cl)ns1)c1nccnc1C(F)(F)F [Compound I-1-44]
Boophilus microplus
  efficacy (infertile eggs): 100%
Diabrotica balteata
  efficacy (seedling growth): 100%

## CCc1ncccc1C(=O)Nc1nc(-c2ccccc2Cl)ns1 [Compound I-1-48]
Meloidogyne incognita
  nematicidal activity (gall formation): 90%

## Cc1ccccc1-c1nsc(NC(=O)c2cccnc2C(F)(F)F)n1 [Compound I-1-53]
Diabrotica balteata
  efficacy (seedling growth): 80%

## O=C(Nc1nc(-c2cccc(F)c2C(F)(F)F)ns1)c1cccnc1C(F)(F)F [Compound I-1-61]
Diabrotica balteata
  efficacy (seedling growth): 80%

## O=C(Nc1nc(-c2cc(F)ccc2C(F)(F)F)ns1)c1cccnc1C(F)(F)F [Compound I-1-64]
Diabrotica balteata
  efficacy (seedling growth): 100%

## O=C(Nc1nc(-c2ccc(C(F)(F)F)cc2C(F)(F)F)ns1)c1cccnc1C(F)(F)F [Compound I-1-66, N-{3-[2,4-Bis(trifluoromethyl)phenyl]-1,2,4-thiadiazol-5-yl}-2-(trifluoromethyl)nicotinamide]
Nezara viridula [2]
  mortality at 500 g/ha: ≥ 90%

## N#Cc1ccccc1-c1nsc(NC(=O)c2cccnc2C(F)(F)F)n1 [Compound I-1-67, N-[3-(2-Cyanophenyl)-1,2,4-thiadiazol-5-yl]-2-(trifluoromethyl)nicotinamide]
Nezara viridula [2]
  mortality at 500 g/ha: ≥ 90%

## O=C(Nc1nc(-c2ccccc2OC(F)(F)F)ns1)c1ccccc1C(F)(F)F [Compound I-1-70, N-{3-[2-(trifluoromethoxy)phenyl]-1,2,4-thiadiazol-5-yl}-2-(trifluoromethyl)benzamide]
Diabrotica balteata
  efficacy (seedling growth): 100%
Phaedon cochleariae
  mortality at 500 g/ha: ≥ 80%

## O=C(Nc1nc(-c2ccccc2F)ns1)c1ccccc1C(F)(F)F [Compound I-1-73]
Diabrotica balteata
  efficacy (seedling growth): 100%

## O=C(Nc1nc(-c2c(F)cccc2F)ns1)c1cccc(Cl)c1C(F)(F)F [Compound I-1-77]
Diabrotica balteata
  efficacy (seedling growth): 80%

## N#Cc1cccc(C#N)c1-c1nsc(NC(=O)c2cccnc2C(F)(F)F)n1 [Compound I-1-78, N-[3-(2,6-Dicyanophenyl)-1,2,4-thiadiazol-5-yl]-2-(trifluoromethyl)nicotinamide]
Phaedon cochleariae
  mortality at 500 g/ha: ≥ 80%

## O=C(Nc1nc(-c2cccnc2Cl)ns1)c1ccccc1C(F)(F)F [Compound I-3-1, N-[3-(2-Chloropyridin-3-yl)-1,2,4-thiadiazol-5-yl]-2-(trifluoromethyl)benzamide]
Nezara viridula [2]
  mortality at 500 g/ha: ≥ 90%
Phaedon cochleariae
  mortality at 500 g/ha: ≥ 80%
